Values quoted from earlier work, collected in patent publication US20220226500A1, “FULLERENIC ELLAGIC LUTEOLIN AND METHODS” (Sinapu LLC, priority 2021, published 2022).

Columns and labels:
[1] = human body
[2] = in water

time in which more than half of the absorbed blood plasma level is broken down [1]: within one hour | solubility [2]: 0.0097 grams per liter of water
SMILES: O=c1oc2c(O)c(O)cc3c(=O)oc4c(O)c(O)cc1c4c23 [ellagic acid]
